According to patent US20100016358A1, “GAMMA-GLOBIN INDUCER” (KOWA CO., LTD., priority 2006, published 2010):
Counter-ions that a name gives are not always drawn.

Key:
Format in all cases: cell-based, human
[1] = test system: γ-globin mRNA in K562 cells; experiment: γ-globin mRNA level in K562 cells by real-time PCR (TaqMan); settings: 0.3-μM-added group, cultured three days
Protocol: K562 cells (1×10^5 cells/mL) were seeded into each well of 6-well plate (4 mL/well). A solution of compound 1 (×1000) was added to the plate (4 μL/well), and cells were cultured in a CO2 incubator (37° C., 5% CO2) for three days. The cultured cells were collected, and RNA was prepared from the cells by means of a RNeasy mini column (product of Qiagen). Subsequently, cDNA was synthesized from the thus-obtained RNA by use of reverse transcriptase. Through real-time PCR employing a TaqMan probe according to a protocol of Applied Bio-Systems, γ-globin mRNA level was determined (ABI PRISM7900HT System, product of Applied Bio-Systems). In Example 2, the following primers and probe were employed (SEQ ID NOs: 1 to 3): […]
forward primer (GGTTCTTTGACAGCTTTG, SEQ ID NO: 1);
reverse primer (CCTTCTTGCCATGTGCCTT, SEQ ID NO: 2); and
fluorescence probe (CCTCTGCCTCTGCCATC, SEQ ID NO: 3).
These primers and probe are custom synthesis products of Qiagen.

K562 cells [2] = experiment: HbF-producing cells (F cells) in K562 cell population by flow cytometry with FITC-labeled anti-HbF antibody; settings: 0.1-μM compound, cultured three days
Protocol: K562 cells (1×10^5 cells/mL) were seeded into each well of 24-well plate (2 mL/well). A solution of compound 1 (×1000) was added to the plate (2 μL/well), and cells were cultured in a CO2 incubator (37° C., 5% CO2) for three days. The cultured cells were collected through centrifugation and treated for 10 minutes with phosphate buffered saline (PBS) containing 0.05% glutaraldehyde/0.1% bovine serum albumin (BSA). The liquid was removed from the mixture through centrifugation, to thereby obtain pellets. Subsequently, 0.1% BSA/PBS was added to the separated pellets, and the same treatment was performed three times, to thereby wash the cells. The thus-washed cells were subjected, for five minutes, to permeation treatment with 0.1% BSA/PBS containing 1% Triton X-100 (0.5 mL) and washed once again. The resultant cells were suspended in 0.1% BSA/PBS (80 μL). FITC-labeled anti-HbF antibody (10 μg/mL, product of Caltag) (5 μL) was added to the suspension, and the mixture was allowed to react at room temperature in the dark for 15 minutes, whereby HbF present in the cells was immunostained. In a similar manner as described above, the stained cells were washed and suspended in 0.1% BSA/PBS containing 1% formaldehyde (0.5 mL). The suspension was analyzed through a method known in the art, by means of a flow cytometer (EPICS XL, product of Beckman Coulter, Inc.).

K562 cells [3] = experiment: Measurement of the amount of hemoglobin produced by K562 cells (porphyrin fluorescence); settings: for hemoglobin production promoting action: FIG. 1
Protocol: Compound 1 was synthesized through a method disclosed in International publication WO 03/02703 (Example 13) and dissolved in dimethyl sulfoxide (DMSO). The concentration of the solution was adjusted as appropriate through dilution. An equiamount of DMSO was employed as a control solution.
Cells of human proerythroblast cell line K562 (obtained from ATCC) were added to a complete culture medium (RPMI-1640 medium containing 10% fetal bovine serum), and the resultant cells (1×10^5 cells/mL) were seeded into each well of 24-well plate (2 mL/well). A solution of compound 1 (×1000) was added to the plate (2 μL/well), and cells were cultured in a CO2 incubator (37° C., 5% CO2) for three days. The medium was renewed, and cells were further cultured for three days.
The cultured cells were collected and counted. The number of cells in each sample was adjusted to 3×10^5, and the intensity of the fluorescence attributed to a porphyrin ring was measured, to thereby determine the hemoglobin level. Specifically, cells collected through centrifugation were suspended in 2M oxalic acid (500 μL), and the suspension was boiled for 30 minutes and cooled. Fluorescence intensity was measured by means of a fluorescence microplate reader (Spectra MAX Gemini EM, product of Molecular Device) ([…]).

| SMILES | amount of γ-globin mRNA produced (compound-non-added group = 1) [1] | number of HbF-expressing cells (F cells) (K562 cells [2]) | amount of hemoglobin produced (compound-non-added group = 100%) (K562 cells [3]; 0.3-μM-added group, cultured 3 + 3 days) | hemoglobin production promoting action (K562 cells [3]) |
| --- | --- | --- | --- | --- |
| COc1ccc(N(Cc2cncc(-c3cc(OC)c(OC)c(OC)c3)c2)C2CCN(Cc3ccnc(-c4cc(OC)c(OC)c(OC)c4)c3)CC2)cc1 [compound 1, 4-[N-(4-Methoxyphenyl)-N-[[5-(3,4,5-trimethoxyphenyl)pyridin-3-yl]methyl]amino]-1-[[2-(3,4,5-trimethoxyphenyl)pyridin-4-yl]methyl]piperidine] | about four fold | almost doubled | 435% | promotes production of hemoglobin in a concentration (dose)-dependent manner |
| COc1cc(C(=O)OCCCN2CCCN(CCCOC(=O)c3cc(OC)c(OC)c(OC)c3)CC2)cc(OC)c1OC [dilazep hydrochloride, Dilazep hydrochloride, reference compound] |  |  |  | did not exhibit hemoglobin production promoting action |
